According to PMC9139979, “Features of ZED1227: The First-In-Class Tissue Transglutaminase Inhibitor Undergoing Clinical Evaluation for the Treatment of Celiac Disease” (Cells, 2022):
“Also recorded” adds a separate entry of the source.

What was measured:
Huh7 cells = test: BrdU cell proliferation ELISA, Huh7; format: cell-based, human; details: up to 1,000 μM, 24 h + 24 h
Experimental: (§1) Cytotoxicological analysis of ZED1227 was performed using Huh7 (human liver carcinoma, CLS Cell Lines Service GmbH, Eppelheim, Germany) and Caco-2 cells (human epithelial colorectal adenocarcinoma, Sigma Aldrich, Taufkirchen, Germany) with respect to the effect on proliferation and viability, according to the assay protocols provided by the manufacturers of the respective kits. The Cell Proliferation ELISA (BrdU, colorimetric) was purchased from Roche (Mannheim, Germany), whereas the Cell Proliferation and Cytotoxicity Assay EZ4U was purchased from Biomedica (Vienna, Austria). Briefly, Caco-2 cells (in MEM with 1% non-essential amino acid solution, both Sigma Aldrich (Taufkirchen, Germany), 10% fetal bovine serum, 2 mM L-glutamine, 100 U/mL penicillin–streptomycin, all from Gibco) or Huh7 cells (in DMEM low glucose, Sigma Aldrich (Taufkirchen, Germany), 10% fetal bovine serum, 1 mM sodium pyruvate, 100 U/mL penicillin–streptomycin, all from Gibco) were cultured in 96 well plates, using 2.5 μg/mL cycloheximide and 0.2 μg/mL camptothecin-treated cells as positive control. In the 5-bromo-2′-deoxyuridine (BrdU) assay (determination of cell proliferation), the cells were incubated with ZED1227 working solution (1% DMSO in culture medium) up to a concentration of 1,000 μM for 24 h, followed by addition of BrdU into the culture medium and further culturing for 24 h. […]

[1] = system: adult patients with well-controlled celiac disease; design: method as in PMID 34192430; details: cited from earlier work
[2] = Caco-2 cell permeability assay (CacoReady); format: in vitro ADME; details: human, apical 200 μM, HBSS pH 6.5, 1% DMSO
Experimental: The permeability coefficient (Papp value) was obtained from Caco-2 monolayer studies predicting oral/intestinal bioavailability of the tested compound. The assay was performed using CacoReady^TM ready-to-use kits from ReadyCell according to the manufacturer’s protocol. […] The concentration of ZED1227 in the basal and apical media was determined by HPLC. The initial concentration of ZED1227 in the apical medium was 200 μM. Propranolol (20 μM final concentration) was used as a control to validate each ready-to-use plate. Compound stock solutions were prepared in DMSO and further diluted to 1% DMSO using HBSS pH 6.5 to yield the desired working concentration.

Caco-2 cells = test: BrdU cell proliferation ELISA, Caco-2; format: cell-based, human; details: up to 1,000 μM, 24 h + 24 h
Experimental: as §1

hFXIII-A2 = target: T1, hFXIII-A2 (Homo sapiens, UniProt P00488); test: Fluorescent transamidation assay (DCC-assay), hFXIII-A2; format: biochemical
T1 construct: purchased Zedira T027
T1 sequence (P00488 39-732 limits assumed): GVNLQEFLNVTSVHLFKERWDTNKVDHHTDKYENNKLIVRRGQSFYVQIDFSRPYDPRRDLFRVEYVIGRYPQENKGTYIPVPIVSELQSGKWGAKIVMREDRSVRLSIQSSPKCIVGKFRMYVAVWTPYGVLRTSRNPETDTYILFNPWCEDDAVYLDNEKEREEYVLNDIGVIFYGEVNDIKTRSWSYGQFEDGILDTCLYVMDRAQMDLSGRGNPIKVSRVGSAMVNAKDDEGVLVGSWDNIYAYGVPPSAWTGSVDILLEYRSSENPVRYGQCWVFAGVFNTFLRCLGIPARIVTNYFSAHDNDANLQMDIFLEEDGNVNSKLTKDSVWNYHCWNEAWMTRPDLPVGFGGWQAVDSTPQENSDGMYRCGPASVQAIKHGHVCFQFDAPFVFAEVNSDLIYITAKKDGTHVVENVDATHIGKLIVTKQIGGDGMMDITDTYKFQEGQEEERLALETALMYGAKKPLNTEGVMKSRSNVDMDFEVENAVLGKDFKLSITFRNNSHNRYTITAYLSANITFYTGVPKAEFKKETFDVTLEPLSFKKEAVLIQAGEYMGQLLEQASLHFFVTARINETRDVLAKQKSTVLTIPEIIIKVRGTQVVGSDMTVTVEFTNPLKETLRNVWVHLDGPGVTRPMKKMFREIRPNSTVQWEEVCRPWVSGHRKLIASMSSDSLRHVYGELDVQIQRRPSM

hTG3 = target: T2, hTG3 (Homo sapiens, UniProt Q08188); test: Fluorescent transamidation assay (DCC-assay), hTG3; format: biochemical
T2 construct: purchased Zedira T013
T2 sequence (Q08188 2-467 limits assumed): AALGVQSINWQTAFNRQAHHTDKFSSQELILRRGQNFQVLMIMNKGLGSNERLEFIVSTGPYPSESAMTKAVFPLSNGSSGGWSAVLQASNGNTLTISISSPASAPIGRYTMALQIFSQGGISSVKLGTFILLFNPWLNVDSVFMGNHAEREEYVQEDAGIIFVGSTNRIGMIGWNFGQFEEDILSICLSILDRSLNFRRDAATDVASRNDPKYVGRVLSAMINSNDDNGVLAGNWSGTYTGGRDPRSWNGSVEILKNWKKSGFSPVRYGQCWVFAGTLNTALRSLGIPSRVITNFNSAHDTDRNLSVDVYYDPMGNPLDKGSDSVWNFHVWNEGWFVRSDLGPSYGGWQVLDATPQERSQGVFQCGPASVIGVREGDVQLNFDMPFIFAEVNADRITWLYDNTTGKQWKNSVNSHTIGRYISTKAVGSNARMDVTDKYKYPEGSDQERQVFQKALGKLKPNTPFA
T2 sequence (Q08188 468-693 partner limits assumed): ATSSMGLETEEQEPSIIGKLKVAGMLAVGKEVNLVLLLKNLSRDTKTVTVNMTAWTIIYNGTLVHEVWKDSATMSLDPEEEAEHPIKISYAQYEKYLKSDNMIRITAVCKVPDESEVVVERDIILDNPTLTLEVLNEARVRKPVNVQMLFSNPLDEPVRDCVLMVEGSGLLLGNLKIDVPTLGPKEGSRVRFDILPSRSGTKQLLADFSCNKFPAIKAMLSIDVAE

CCC(CC)CNC(=O)Cn1cccc(NC(=O)[C@H](CC/C=C/C(=O)OC)NC(=O)c2cncn2C)c1=O [ZED1227, (S,E)-Methyl 7-(1-(2-(2-ethylbutylamino)-2-oxoethyl)-2-oxo-1,2-dihydropyridin-3-ylamino)-6-(1-methyl-1H-imidazole-5-carboxamido)-7-oxohept-2-enoate]
Cytotoxicity: Proliferation, Huh7 cells (Huh7 cells): nor did it affect cell proliferation rates; also recorded: no effect up to 1,000 μM no effect up to 1,000 μM no effect up to 1,000 μM no effect up to 1,000 μM
Effect on gluten-induced duodenal mucosal injury, phase 2a ([1]; 6-week treatment, 10, 50, 100 mg oral, 3 g daily gluten challenge): protect celiac patients from gluten-induced mucosal injury; also recorded: all dose levels attenuated gluten-induced duodenal mucosal injury; also recorded: protected celiac patients from mucosal damage
Tolerability in gluten challenge study ([1]; celiac patients, gluten challenge): well-tolerated
Papp A→B at 200 μM [2]: < 1 ×10⁻⁶ cm/s
Cytotoxicity: Proliferation, Caco-2 cells (Caco-2 cells): nor did it affect cell proliferation rates; also recorded: no effect up to 1,000 μM no effect up to 1,000 μM no effect up to 1,000 μM no effect up to 1,000 μM
Selectivity hFXIII-A2 versus hTG2 (hFXIII-A2; ratio of app. IC50 values): >900 fold
IC50 (hFXIII-A2; recombinant, thrombin activated, transamidation assay, read-out: App. IC50 hFXIII-A2): > 50 µM
Selectivity hTG3 versus hTG2 (hTG3; ratio of app. IC50 values): >900 fold
IC50 (hTG3; recombinant, activated hTG3a, transamidation assay, read-out: App. IC50 hTG3): > 50 µM
